Measured values reported in patent US9145415B2, “Nitrogen-containing heterocyclic compound or salt thereof” (FUJIFILM Corporation, priority 2012, dated 2015).
Where two headings read alike, the source gives them in different places.

Experiments:
[1] = molecular target: T1, human FLT3 protein (FLT3 (WT)) (Homo sapiens, UniProt P36888); test: FLT3 inhibition test (FLT3 enzyme inhibition, time-resolved fluorescence of substrate peptide phosphorylation); type: biochemical; conditions: read-out: FLT3 (WT) enzyme inhibition activity
T1 construct: human FLT3 protein (intracellular region, 564 to 993 aa); GST; purchased Carna Biosciences; host or cells: baculovirus expression system
T1 sequence (P36888 564-993): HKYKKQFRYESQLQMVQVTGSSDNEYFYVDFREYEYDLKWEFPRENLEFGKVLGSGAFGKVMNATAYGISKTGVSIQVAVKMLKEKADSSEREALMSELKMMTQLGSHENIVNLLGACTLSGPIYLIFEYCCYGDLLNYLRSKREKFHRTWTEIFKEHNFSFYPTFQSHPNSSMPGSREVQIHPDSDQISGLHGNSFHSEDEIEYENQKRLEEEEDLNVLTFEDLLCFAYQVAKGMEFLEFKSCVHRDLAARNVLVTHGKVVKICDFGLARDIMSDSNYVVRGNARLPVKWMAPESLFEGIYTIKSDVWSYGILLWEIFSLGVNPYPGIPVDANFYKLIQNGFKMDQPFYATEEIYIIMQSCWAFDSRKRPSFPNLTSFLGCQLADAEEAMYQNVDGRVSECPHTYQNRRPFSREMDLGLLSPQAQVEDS
Summary of the method: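 Wild-type human FLT3 (1.2 μg) pre-incubated with compound 15 min at 25° C in 100 mM HEPES pH 7.5, 10 mM MgCl2, 25 mM NaCl, 1 mM DTT. Reaction started with substrate peptide and ATP (final 50 μM), run 30 min at 25° C; phosphorylation read by time-resolved fluorescence.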

[2] = system: MV4-11 cells; test: Leukemia cell proliferation inhibition test (ATPlite), MV4-11; type: cell-based; conditions: read-out: MV4-11 cell proliferation inhibition effect
Summary of the method: (§1)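 Luminescent ATP read-out (firefly luciferase) used as a total cell count after 72 h compound exposure at 37° C, 5% CO2. Cells: 10,000/well in RPMI + 10% FBS. GI50 = 50% inhibition relative to 0.1% DMSO, from a sigmoid dose-response fit; duplicates.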

[3] = system: Molm-13 cells; test: Leukemia cell proliferation inhibition test (ATPlite), Molm-13; type: cell-based; conditions: read-out: MOLM13 cell proliferation inhibition effect
Summary of the method: as §1

[4] = GST-fused human FLT3 (564 to 993 aa), ATP 50 μM
[5] = Homo sapiens, MV4-11, 72 h, MV4-11, 72 hours culture, ATPlite, GI50 per method
[6] = Homo sapiens, MOLM-13, 72 h, Molm-13, 72 hours culture, ATPlite, GI50 per method
[7] = Homo sapiens, MV4-11, MV4-11 cell
[8] = Homo sapiens, MOLM-13, MOLM13 cell

Compound | IC50 [1, 4] [nM] | IC50 [2, 5] [nM] | IC50 [3, 6] [nM] | IC50 ([1]; FLT3 (WT)) [nM] | IC50 [2, 7] [nM] | IC50 [3, 8] [nM] | IC50 ([2]; MV4-11, 72 hours culture, ATPlite, GI50 per method) [nM] | IC50 ([3]; Molm-13, 72 hours culture, ATPlite, GI50 per method) [nM]
CNc1nc(Nc2ccc(C#N)cc2)ncc1C#CCCCNC(=O)CN(C)C(=O)/C=C/CN(C)C [Compound 7-88, (E)-N-(2-((5-(2-((4-Cyanophenyl)amino)-4-(methylamino)pyrimidin-5-yl)-4-pentyn-1-yl)amino)-2-oxoethyl)-4-(dimethylamino)-N-methyl-2-butenamide] | < 10 | < 10 | < 10 |  |  |  |  | 
CCCNc1nc(Nc2ccc(C(N)=O)cc2)ncc1C(=O)Nc1cccc(NC(=O)[C@H](C)N(C)C(=O)/C=C/CN2CCNCC2)c1 [Compound 4-1, (S,E)-2-((4-carbamoylphenyl)amino)-N-(3-(2-(N-methyl-4-(piperazin-1-yl)-2-butenamido)propanamido)phenyl)-4-(propylamino)pyrimidine-5-carboxamide] | < 10 | 10 to 100 | 10 to 100 |  |  |  |  | 
CCCNc1nc(Nc2ccc(C(N)=O)cc2)ncc1C#Cc1ccc2nc(CNC(=O)/C=C/CN(C)C)[nH]c2c1 [Compound 8-9] | < 10 | 10 to 100 | 10 to 100 |  |  |  |  | 
CCCNc1nc(Nc2ccc(C(N)=O)cc2)ncc1C(=O)N[C@@H]1CCC[C@H](Nc2ccccc2NC(=O)/C=C/CN(C)C)C1 [Compound 3-28] | < 10 |  |  |  |  |  | 100 to 1000 | 100 to 1000
CCCNc1nc(NC(=O)Nc2ccncc2)ncc1C(=O)Nc1cccc(NC(=O)[C@H](C)N(C)C(=O)/C=C/CN(C)C)c1 [Compound 6-14] | < 10 | < 10 | 10 to 100 |  |  |  |  | 
CCCNc1nc(NCCc2ccncc2)ncc1C(=O)Nc1cccc(NC(=O)CNC(=O)/C=C/CN2CC(C)NC(C)C2)c1 (stereo not drawn) [Compound 2-15] | < 10 | 100 to 1000 | 100 to 1000 |  |  |  |  | 
CCCNc1nc(Nc2cccc(C#N)c2)ncc1C#CCCCNC(=O)[C@H](C)N(C)C(=O)/C=C/CN(C)C [Compound 7-3, (S,E)-N-(1-((5-(2-((3-Cyanophenyl)amino)-4-(propylamino)pyrimidin-5-yl)-4-pentyn-1-yl)amino)-1-oxopropan-2-yl)-4-(dimethylamino)-N-methyl-2-butenamide] | < 10 | < 10 | < 10 |  |  |  |  | 
CCCNc1nc(Nc2ccc(F)cc2)ncc1C#CCCCNC(=O)CN(C)C(=O)/C=C/CN(C)C [Compound 7-8, (E)-4-(Dimethylamino)-N-(2-((5-(2-((4-fluorophenyl)amino)-4-(propylamino)pyrimidin-5-yl)-4-pentyn-1-yl)amino)-2-oxoethyl)-N-methyl-2-butenamide] | < 10 | < 10 | < 10 |  |  |  |  | 
CCCNc1nc(Nc2cccc(F)c2)ncc1C#CCCCNC(=O)[C@H](CC(C)C)N(C)C(=O)/C=C/CN(C)C [Compound 7-11] | < 10 | 10 to 100 | 10 to 100 |  |  |  |  | 
C[C@@H](C(=O)NCCCC#Cc1cnc(Nc2ccc(C#N)cc2)nc1N1CCCC1)N(C)C(=O)/C=C/CN(C)C [Compound 9-1, (S,E)-N-(1-((5-(2-((4-cyanophenyl)amino)-4-(pyrrolidin-1-yl)pyrimidin-5-yl)-4-pentyn-1-yl)amino)-1-oxopropan-2-yl)-4-(dimethylamino)-N-methyl-2-butenamide] | < 10 | < 10 | < 10 |  |  |  |  | 
CCCNc1nc(Nc2cccc(F)c2)ncc1C#CCCC(=O)NCCN(C)C(=O)/C=C/CN(C)C [Compound 8-21] | 10 to 100 | 100 to 1000 | 100 to 1000 |  |  |  |  | 
C=CC(=O)NCC(=O)NC1CCCC(NC(=O)c2cnc(NCCc3ccncc3)nc2NCCC)C1 (stereo not drawn) [Compound 1-4] | < 10 | < 10 | 10 to 100 |  |  |  |  | 
CCCNc1nc(Nc2cccc(F)c2)ncc1C#CCCCNC(=O)[C@H]1CCCN1C(=O)/C=C/CN(C)C [Compound 7-94] | 10 to 100 | 10 to 100 | 10 to 100 |  |  |  |  | 
CCCNc1nc(Nc2ccc(C(N)=O)cc2)ncc1C(=O)Nc1cccc(NC(=O)[C@H](C)N(C)C(=O)/C=C/CN(CC)CC)c1 [Compound 4-8, (S,E)-2-((4-Carbamoylphenyl)amino)-N-(3-(2-(4-(diethylamino)-N-methyl-2-butenamido)propanamido)phenyl)-4-(propylamino)pyrimidine-5-carboxamide] | < 10 | < 10 | < 10 |  |  |  |  | 
C=CC(=O)NCC(=O)N1CCC(NC(=O)c2cnc(NCCc3ccncc3)nc2NCCC)C1 (stereo not drawn) [Compound 6-17] | 10 to 100 | 100 to 1000 | 100 to 1000 |  |  |  |  | 

Results, then the molecule that gave them:

IC50 [1, 4] [nM] | IC50 [2, 5] [nM] | IC50 [3, 6] [nM] | IC50 ([1]; FLT3 (WT)) [nM] | IC50 [2, 7] [nM] | IC50 [3, 8] [nM] | IC50 ([2]; MV4-11, 72 hours culture, ATPlite, GI50 per method) [nM] | IC50 ([3]; Molm-13, 72 hours culture, ATPlite, GI50 per method) [nM] | Compound
< 10 | < 10 | < 10 |  |  |  |  |  | CNc1nc(Nc2ccc(C#N)cc2)ncc1C#C[C@H]1C[C@@H](NC(=O)[C@H](C)N(C)C(=O)/C=C/CN(C)C)C1 [Compound 13-14, (E)-N—((S)-1-(((1S,3R)-3-((2-((4-Cyanophenyl)amino)-4-(methylamino)pyrimidin-5-yl)ethynyl)cyclobutyl)amino)-1-oxopropan-2-yl)-4-(dimethylamino)-N-methyl-2-butenamide]
 |  |  | 10 to 100 | 10 to 100 | 10 to 100 |  |  | CCCNc1nc(Nc2ccc(-n3nccn3)cc2)ncc1C#CCCCNC(=O)[C@H](C)N(C)C(=O)/C=C/CN(C)C [Compound 22-16]
< 10 | < 10 | < 10 |  |  |  |  |  | C[C@@H](C(=O)N[C@H]1C[C@@H](C#Cc2cnc(Nc3ccc(C#N)cc3)nc2NC2CC2)C1)N(C)C(=O)/C=C/CN(C)C (relative stereo) [Compound 15-8, (E)-N—((S)-1-(((1S*,3R*)-3-((2-((4-Cyanophenyl)amino)-4-(cyclopropylamino)pyrimidin-5-yl)ethynyl)cyclobutyl)amino)-1-oxopropan-2-yl)-4-(dimethylamino)-N-methyl-2-butenamide]
< 10 | < 10 | < 10 |  |  |  |  |  | C[C@@H](C(=O)NCCCC#Cc1cnc(Nc2ccc(C(N)=O)cc2)nc1N1CCCC1)N(C)C(=O)/C=C/CN(C)C [Compound 9-7]
 |  |  | < 10 | < 10 | < 10 |  |  | CCCNc1nc(Nc2ccc3c(c2)c(OC)nn3C)ncc1C#CCCCNC(=O)[C@H](C)N(C)C(=O)/C=C/CN(C)C [Compound 22-25]
< 10 | < 10 | < 10 |  |  |  |  |  | CC[C@@H](C(=O)NCCCC#Cc1cnc(Nc2ccc(F)cc2)nc1Nc1ccc(OC)nc1)N(C)C(=O)/C=C/CN(C)C [Compound 10-39]
 |  |  | < 10 | < 10 | < 10 |  |  | CNc1nc(Nc2ccc(OC)c(F)c2)ncc1C#CCCCNC(=O)[C@@H]1CCCN1C(=O)/C=C/CN(C)C [Compound 21-42]
 |  |  | < 10 | < 10 | 10 to 100 |  |  | CCCNc1nc(Nc2cncc(F)c2)ncc1C#CCCCNC(=O)[C@H](C)N(C)C(=O)/C=C/CN(C)C [Compound 22-8]
 |  |  | < 10 | 10 to 100 | 10 to 100 |  |  | CCCNc1nc(Nc2ccc3sc(C)nc3c2)ncc1C#CCCCNC(=O)[C@H](C)N(C)C(=O)/C=C/CN(C)C [Compound 22-7]
 |  |  | < 10 | < 10 | < 10 |  |  | C[C@@H](C(=O)N[C@H]1CCC[C@@H](C#Cc2cnc(Nc3ccc(F)cc3)nc2NC2CC2)C1)N(C)C(=O)/C=C/CN(C)C [Compound 21-46]
< 10 | < 10 | < 10 |  |  |  |  |  | COCCCNc1nc(Nc2ccc(C#N)cc2)ncc1C#C[C@H]1C[C@@H](NC(=O)[C@H](C)N(C)C(=O)/C=C/CN(C)C)C1 [Compound 15-16, (E)-N—((S)-1-(((1S,3R)-3-((2-((4-Cyanophenyl)amino)-4-((3-methoxypropyl)amino)pyrimidin-5-yl)ethynyl)cyclobutyl)amino)-1-oxopropan-2-yl)-4-(dimethylamino)-N-methyl-2-butenamide]
< 10 | < 10 | < 10 |  |  |  |  |  | COCCCNc1nc(Nc2ccc3cnn(C)c3c2)ncc1C#CCCCNC(=O)[C@H](C)N(C)C(=O)/C=C/CN(C)C [Compound 10-59]
10 to 100 | < 10 | < 10 |  |  |  |  |  | C[C@@H](C(=O)NCCCC#Cc1cnc(Nc2ccc(C#N)cc2)nc1-c1ccccc1)N(C)C(=O)/C=C/CN(C)C [Compound 20-1, (S,E)-N-(1-((5-(2-((4-cyanophenyl)amino)-4-phenylpyrimidin-5-yl)-4-pentyn-1-yl)amino)-1-oxopropan-2-yl)-4-(dimethylamino)-N-methyl-2-butenamide]
